pIC50: −log10 of the molar value. Read-outs that look alike come from different tables or passages of the source.

Data set [1] concerns the target Human serotonin 5-HT6 receptor (Homo sapiens, UniProt P50406). Briefly: [3H]LSD binding assay on cloned 5-HT6 receptor. The note with it: for IC50: IC50 (nM), binding affinity to the 5-HT6 receptor, Table 2, 1.87 nM [3H]LSD, cloned human receptor membranes from Sf21 cells, 37° C. 60 min.

Human serotonin 5-HT6 receptor, sequence (P50406 whole entry): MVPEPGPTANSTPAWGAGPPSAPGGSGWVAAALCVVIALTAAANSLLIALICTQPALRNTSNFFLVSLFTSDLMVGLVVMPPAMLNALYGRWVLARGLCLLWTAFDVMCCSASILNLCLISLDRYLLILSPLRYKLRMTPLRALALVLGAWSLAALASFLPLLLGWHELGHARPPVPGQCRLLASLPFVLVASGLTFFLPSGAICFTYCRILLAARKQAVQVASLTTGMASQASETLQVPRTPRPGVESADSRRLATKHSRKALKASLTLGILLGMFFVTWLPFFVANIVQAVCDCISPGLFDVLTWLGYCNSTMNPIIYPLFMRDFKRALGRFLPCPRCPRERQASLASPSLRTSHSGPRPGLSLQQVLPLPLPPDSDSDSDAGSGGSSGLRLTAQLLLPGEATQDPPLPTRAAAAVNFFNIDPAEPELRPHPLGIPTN

The melting point is the temperature, or range, at which the solid turns liquid. For orientation: IC50 means the concentration needed to halve the response being measured. Higher therefore signals lower potency. `O=C1N(Cc2ccccc2)c2cc(Cl)cc(N3CCNCC3)c2S(=O)(=O)N1Cc1ccccc1Br` [Example 48, 4-Benzyl-2-(2-bromo-benzyl)-6-chloro-1,1-dioxo-8-piperazin-1-yl-1,4-dihydro-2H-1λ^6-benzo[1,2,4]thiadiazin-3-one] returned a melting point of 144 to 145 °C. In addition, the IC50 in data set [1] stood at 46 nM.
The like results for `CN1CCN(c2cc(Cl)cc3c2S(=O)(=O)N(CC2CCCCC2)C(=O)N3Cc2ccccc2)CC1` [Example 36, 4-Benzyl-6-chloro-2-cyclohexylmethyl-8-(4-methyl-piperazin-1-yl)-1,1-dioxo-1,4-dihydro-2H-1λ^6-benzo[1,2,4]thiadiazin-3-one] were, in that order, 155 to 158 °C and 1.5 nM.
The like results for `CN1CCN(c2cc(Cl)cc3c2S(=O)(=O)N(Cc2ccc(Br)cc2)C(=O)N3Cc2ccccc2)CC1` [Example 10, 4-Benzyl-2-(4-bromo-benzyl)-6-chloro-8-(4-methyl-piperazin-1-yl)-1,1-dioxo-1,4-dihydro-2H-1λ^6-benzo[1,2,4]thiadiazin-3-one] were, in that order, 115 to 116 °C and 6.1 nM.
Consider `COc1cccc(N2C(=O)N(Cc3ccccc3)c3cc(Cl)cc(N4CCN(C)CC4)c3S2(=O)=O)c1` [Example 29, 4-Benzyl-6-chloro-2-(3-methoxy-phenyl)-8-(4-methyl-piperazin-1-yl)-1,1-dioxo-1,4-dihydro-2H-1λ^6-benzo[1,2,4]thiadiazin-3-one], for which the melting point was in the range of 191 to 193 °C. This compound also returned a half-maximal inhibitory concentration (IC50) in data set [1] of 1.7 nM.
What is called pIC50 is −log10 of the IC50, conventionally taken in molar units. A high value points to a small IC50. Consider `CN1CCN(c2cc(Cl)cc3c2S(=O)(=O)N(C)C(=O)N3C)CC1` [Example 31, 6-Chloro-2,4-dimethyl-8-(4-methyl-piperazin-1-yl)-1,1-dioxo-1,4-dihydro-2H-1λ^6-benzo[1,2,4]thiadiazin-3-one], for which the pIC50 in data set [1] was 6.13.
`N#Cc1ccc(CN2C(=O)N(Cc3ccccc3)c3cc(Cl)cc(N4CCNCC4)c3S2(=O)=O)cc1` [Example 57, 4-(4-Benzyl-6-chloro-1,1,3-trioxo-8-piperazin-1-yl-3,4-dihydro-1H-1λ^6-benzo[1,2,4]thiadiazin-2-ylmethyl)-benzonitrile] registered a melting point of 135 to 137 °C. In data set [1], this compound registered a concentration for half-maximal inhibition (IC50) of 18 nM.
As to `O=C1N(Cc2ccccc2)c2cc(Cl)cc(N3CCNCC3)c2S(=O)(=O)N1c1ccccc1` [Example 60, 4-Benzyl-6-chloro-1,1-dioxo-2-phenyl-8-piperazin-1-yl-1,4-dihydro-2H-1λ^6-benzo[1,2,4]thiadiazin-3-one], the melting point lay within 275 to 277 °C. For the same compound, in data set [1], the IC50 is 15.5 nM.
The like results for `COC(=O)c1ccc(CN2C(=O)N(Cc3ccccc3)c3cc(Cl)cc(N4CCNCC4)c3S2(=O)=O)cc1` [Example 56, 4-(4-Benzyl-6-chloro-1,1,3-trioxo-8-piperazin-1-yl-3,4-dihydro-1H-1λ^6-benzo[1,2,4]thiadiazin-2-ylmethyl)-benzoic acid methyl ester] were, in that order, 136 to 139 °C and 8.4 nM.
In the same order, the values of `O=C1N(Cc2ccccc2)c2cc(Cl)cc(N3CCNCC3)c2S(=O)(=O)N1Cc1ccccc1[N+](=O)[O-]` [Example 55, 4-Benzyl-6-chloro-2-(2-nitro-benzyl)-1,1-dioxo-8-piperazin-1-yl-1,4-dihydro-2H-1λ^6-benzo[1,2,4]thiadiazin-3-one] are 134 to 135 °C and 33 nM.
As to `CCCCN1C(=O)N(Cc2ccccc2)c2cc(Cl)cc(N3CCN(C)CC3)c2S1(=O)=O` [Example 35, 4-Benzyl-2-butyl-6-chloro-8-(4-methyl-piperazin-1-yl)-1,1-dioxo-1,4-dihydro-2H-1λ^6-benzo[1,2,4]thiadiazin-3-one], the melting point is 116 to 118 °C. In addition, the concentration for half-maximal inhibition (IC50) in data set [1] was determined as 1.9 nM.
In the case of `CN1CCN(c2cc(Cl)cc3c2S(=O)(=O)N(Cc2cccc(Br)c2)C(=O)N3Cc2ccccc2)CC1` [Example 9, 4-Benzyl-2-(3-bromo-benzyl)-6-chloro-8-(4-methyl-piperazin-1-yl)-1,1-dioxo-1,4-dihydro-2H-1λ^6-benzo[1,2,4]thiadiazin-3-one], the melting point lay in the range of 96 to 98 °C. For the same compound, the IC50 in data set [1] amounted to 2.2 nM.
In the same order, the values of `CN1CCN(c2cc(Cl)cc3c2S(=O)(=O)N(Cc2cccc(Cl)c2)C(=O)N3Cc2ccccc2)CC1` [Example 6, 4-Benzyl-6-chloro-2-(3-chloro-benzyl)-8-(4-methyl-piperazin-1-yl)-1,1-dioxo-1,4-dihydro-2H-1λ^6-benzo[1,2,4]thiadiazin-3-one] are 87 to 88 °C and 5.2 nM.
The like results for `Cc1ccc(CN2C(=O)N(Cc3ccccc3)c3cc(Cl)cc(N4CCN(C)CC4)c3S2(=O)=O)o1` [Example 43, 4-Benzyl-6-chloro-2-(5-methyl-furan-2-ylmethyl)-8-(4-methyl-piperazin-1-yl)-1,1-dioxo-1,4-dihydro-2H-1λ^6-benzo[1,2,4]thiadiazin-3-one] were, in that order, 130 to 131 °C and 75.9 nM.
In the same order, the values of `Cc1ccccc1CN1C(=O)N(Cc2ccccc2)c2cc(Cl)cc(N3CCN(C)CC3)c2S1(=O)=O` [Example 13, 4-Benzyl-6-chloro-2-(2-methyl-benzyl)-8-(4-methyl-piperazin-1-yl)-1,1-dioxo-1,4-dihydro-2H-1λ^6-benzo[1,2,4]thiadiazin-3-one] are 148 to 150 °C and 1.6 nM.
For the compound `COc1ccccc1CN1C(=O)N(Cc2ccccc2)c2cc(Cl)cc(N3CCNCC3)c2S1(=O)=O` [Example 51, 4-Benzyl-6-chloro-2-(2-methoxy-benzyl)-1,1-dioxo-8-piperazin-1-yl-1,4-dihydro-2H-1λ^6-benzo[1,2,4]thiadiazin-3-one], the melting point lay within 129 to 130 °C. In data set [1], this compound showed an IC50 of 48.9 nM.
Take `CN1CCN(c2cc(Cl)cc3c2S(=O)(=O)N(Cc2cccc(I)c2)C(=O)N3Cc2ccccc2)CC1` [Example 11, 4-Benzyl-6-chloro-2-(3-iodo-benzyl)-8-(4-methyl-piperazin-1-yl)-1,1-dioxo-1,4-dihydro-2H-1λ^6-benzo[1,2,4]thiadiazin-3-one]: the melting point was 96 to 98 °C. Also, the IC50 in data set [1] was 4.4 nM.
In the same order, the values of `Cc1cccc(CN2C(=O)N(Cc3ccccc3)c3cc(Cl)cc(N4CCN(C)CC4)c3S2(=O)=O)c1` [Example 14, 4-Benzyl-6-chloro-2-(3-methyl-benzyl)-8-(4-methyl-piperazin-1-yl)-1,1-dioxo-1,4-dihydro-2H-1λ^6-benzo[1,2,4]thiadiazin-3-one] are 188 to 191 °C and 11.6 nM.
As to `COc1ccccc1N1C(=O)N(Cc2ccccc2)c2cc(Cl)cc(N3CCN(C)CC3)c2S1(=O)=O` [Example 28, 4-Benzyl-6-chloro-2-(2-methoxy-phenyl)-8-(4-methyl-piperazin-1-yl)-1,1-dioxo-1,4-dihydro-2H-1λ^6-benzo[1,2,4]thiadiazin-3-one], the melting point was 119 to 120 °C. Further, the half-maximal inhibitory concentration (IC50) in data set [1] was found to be 7.1 nM.
The like results for `Cc1ccccc1CN1C(=O)N(Cc2ccccc2)c2cc(Cl)cc(N3CCNCC3)c2S1(=O)=O` [Example 50, 4-Benzyl-6-chloro-2-(2-methyl-benzyl)-1,1-dioxo-8-piperazin-1-yl-1,4-dihydro-2H-1λ^6-benzo[1,2,4]thiadiazin-3-one] were, in that order, 70 to 72 °C and 22.2 nM.
In the same order, the values of `COc1ccccc1N1C(=O)N(Cc2ccccc2)c2cc(Cl)cc(N3CCNCC3)c2S1(=O)=O` [Example 61, 4-Benzyl-6-chloro-2-(2-methoxy-phenyl)-1,1-dioxo-8-piperazin-1-yl-1,4-dihydro-2H-1λ^6-benzo[1,2,4]thiadiazin-3-one] are 175 to 176 °C and 50.7 nM.
On to `CN1CCN(c2cc(Cl)cc3c2S(=O)(=O)N(CCc2ccccc2)C(=O)N3Cc2ccccc2)CC1` [Example 37, 4-Benzyl-6-chloro-8-(4-methyl-piperazin-1-yl)-1,1-dioxo-2-phenethyl-1,4-dihydro-2H-1λ^6-benzo[1,2,4]thiadiazin-3-one], for which the melting point fell in the range of 151 to 152 °C. In addition, in data set [1], the half-inhibitory concentration (IC50) turned out to be 6.9 nM.
`CCCCCCCCCCN1C(=O)N(Cc2ccccc2)c2cc(Cl)cc(N3CCN(C)CC3)c2S1(=O)=O` [Example 40, 4-Benzyl-6-chloro-2-decyl-8-(4-methyl-piperazin-1-yl)-1,1-dioxo-1,4-dihydro-2H-1λ^6-benzo[1,2,4]thiadiazin-3-one] had an IC50 in data set [1] of 4.5 nM.
In the case of `O=C1N(Cc2ccccc2)c2cc(Cl)cc(N3CCNCC3)c2S(=O)(=O)N1Cc1cccc(F)c1` [Example 46, 4-Benzyl-6-chloro-2-(3-fluoro-benzyl)-1,1-dioxo-8-piperazin-1-yl-1,4-dihydro-2H-1λ^6-benzo[1,2,4]thiadiazin-3-one], the melting point lay within 154 to 155 °C.
For the compound `CN1CCN(c2cc(Cl)cc3c2S(=O)(=O)N(C)C(=O)N3Cc2ccccc2)CC1` [Example 32, 4-Benzyl-6-chloro-2-methyl-8-(4-methyl-piperazin-1-yl)-1,1-dioxo-1,4-dihydro-2H-1λ^6-benzo[1,2,4]thiadiazin-3-one], in data set [1], the half-maximal inhibitory concentration (IC50) worked out at 4.2 nM. This counts as single-digit nanomolar.
Still for that read-out and setting: as for `CCCCCCCCCCN1C(=O)N(Cc2ccccc2)c2cc(Cl)cc(N3CCNCC3)c2S1(=O)=O` [Example 67, 4-Benzyl-6-chloro-2-decyl-1,1-dioxo-8-piperazin-1-yl-1,4-dihydro-2H-1λ^6-benzo[1,2,4]thiadiazin-3-one], the figure is 3 nM.
Take `CCCN1C(=O)N(Cc2ccccc2)c2cc(Cl)cc(N3CCNCC3)c2S1(=O)=O` [Example 65, 4-Benzyl-6-chloro-2-propyl-1,1-dioxo-8-piperazin-1-yl-1,4-dihydro-2H-1λ^6-benzo[1,2,4]thiadiazin-3-one]: the melting point lay within 148 to 150 °C.
The same measure, in the same setting: under `O=C1N(Cc2ccccc2)c2cc(Cl)cc(N3CCN4CCC[C@@H]4C3)c2S(=O)(=O)N1Cc1ccccc1Cl` [Example 74, 4-Benzyl-6-chloro-2-(2-chloro-benzyl)-8-[(6R)-1,4-diazabicyclo[4.3.0]non-4-yl]-1,1-dioxo-1,4-dihydro-2H-1λ^6-benzo[1,2,4]thiadiazin-3-one] stands 114 to 116 °C.

The values are drawn from patent publication US20100035866A1, “NOVEL SUBSTITUTED-1, 1-DIOXO-BENZO[1,2,4]THIADIAZIN-3ONES, PREPARATION METHOD THEREOF, AND PHARMACEUTICAL COMPOSITION CONTAINING THE SAME” (KOREA RESEARCH INSTITUTE OF CHEMICAL TECHNOLOGY, priority 2006, published 2010).
